Where “and” joins values, the source holds several entries; their conditions need not be identical. Identical values can stand only once. Ends that are not written are not given here.
How the values were obtained:
GOTO cells = experiment: aequorin bioluminescence assay in GOTO cells without exogenous MCHR1 (aequorin only, or no plasmids); format: cell-based, human
Experimental: The aequorin bioluminescence assay can be used to measure the activity of G protein-coupled receptors that couple through the Ga protein subunit family consisting of Gq, G11, and Gi leading to the activation of phospholipase C, mobilization of intracellular calcium and activation of protein kinase C. Measurement of functional MCHR1 expression in GOTO cells transiently expressing aequorin was performed using a Luminoskan RT luminometer (Labsystems Inc., Gaithersburg, Md.) controlled by custom software written for a Macintosh PowerPC 6100.
GOTO cells (1.2×10^7 cells plated 18 hours before transfection in a T75 flask) were transfected with human MCHR1 plasmid DNA and aequorin cDNA using the Lipofectamine 2000 procedure (Life Technologies, Gaithersburg, Md.). Human MCHR1 plasmid DNA contained the open reading frame cDNA (SEQ. ID. NO. 2) encoding the human MCHR1 receptor inserted in the mammalian expression vector pcDNA-3 (Invitrogen, Carlsbad, Calif.). An aequorin expressing plasmid contained the cDNA for aequorin (Button, et al., 1993. Cell Calcium 14, 663-671), inserted in pcDNA-3. Following approximately 40 hours of expression the apo-aequorin in the cells was charged for 1 hour with coelenterazine (10 μM) under reducing conditions (300 μM reduced glutathione) in ECB buffer (140 mM NaCl, 20 mM KCl, 20 mM HEPES-NaOH [pH=7.4], 5 mM glucose, 1 mM MgCl2, 1 mM CaCl2, 0.1 mg/ml bovine serum albumin). The cells were harvested, washed once in ECB medium and resuspended to 500,000 cells/ml or 1,000,000cells/ml.
Lysophosphatidic acid triggers native edg receptors coupled to PLC activation present on GOTO cells. The integrated light emission was recorded over 30 seconds, in 0.5 second units. 20 μL of lysis buffer (0.1% final Triton X-100 concentration) was then injected and the integrated light emission recorded over 10 seconds, in 0.5 second units. The “fractional response” values for each well were calculated by taking the ratio of the integrated response to the initial challenge to the total integrated luminescence including the Triton X-100 lysis response.

[1] = biological target: human melanin-concentrating hormone receptor 1 (MCHR1) (human) (UniProt Q99705); experiment: cell-based or functional assay
Chain of human melanin-concentrating hormone receptor 1 (MCHR1) (human) (Q99705 whole entry): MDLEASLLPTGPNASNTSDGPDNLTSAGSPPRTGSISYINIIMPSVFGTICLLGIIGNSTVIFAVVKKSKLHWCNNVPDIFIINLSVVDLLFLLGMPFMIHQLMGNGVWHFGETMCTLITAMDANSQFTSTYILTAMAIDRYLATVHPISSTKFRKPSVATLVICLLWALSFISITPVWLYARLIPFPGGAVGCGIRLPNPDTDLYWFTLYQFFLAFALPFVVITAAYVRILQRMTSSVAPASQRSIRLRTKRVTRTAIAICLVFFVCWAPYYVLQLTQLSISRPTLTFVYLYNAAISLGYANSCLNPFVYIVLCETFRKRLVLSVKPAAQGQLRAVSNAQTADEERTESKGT

human MCHR1 = biological target: T1, human MCHR1 (Homo sapiens, UniProt Q99705); experiment: aequorin bioluminescence assay in GOTO cells co-transfected with aequorin and human MCHR1; format: cell-based; conditions: 1 μM; GOTO cells transfected with AEQ + MCHR1
T1 construct: expressed in transfected cells; host or cells: GOTO human neuroblastoma cells, transient co-transfection with aequorin cDNA (pcDNA-3, Lipofectamine 2000)
T1 sequence (Q99705 whole entry): as above
Experimental: 20 μL of lysis buffer (0.1% final Triton X-100 concentration) was then injected and the integrated light emission recorded over 10 seconds, in 0.5 second units. The “fractional response” values for each well were calculated by taking the ratio of the integrated response to the initial challenge to the total integrated luminescence including the Triton X-100 lysis response.

[2] = 1 μM, GOTO cells, No Aeq (no aequorin and no MCHR1 plasmid)

aequorin bioluminescence (cps), GOTO cells transfected with AEQ + MCHR1, MCH (1 µM) [1] | bioluminescence (human MCHR1) | Substance | bioluminescence (GOTO cells; [2]) | signal over background (in words) (GOTO cells; GOTO cells, absence of exogenous MCHR1, background = buffer injection only (ECB)) | bioluminescence (GOTO cells; 1 μM, GOTO cells transfected with AEQ only (no MCHR1 plasmid)) | control response, calcium mobilization via edg receptor (in words) (GOTO cells; 1 μM, GOTO cells, native edg receptor)
 |  | Melanin-concentrating hormone (DFDMLRCMLGRVYRPCWQV; ends and bridges not checked; also: cyclic, ring closure not given here) [MCH] | 0 cps | no signal over background |  | 
26.4 cps and 26.6 cps |  | Melanin-concentrating hormone (MCH) (from UniProt P20382 147-165) (peptide) |  |  |  | 
 | 6.83 cps | lysophosphatidic acid [LPA] | 0 cps |  | 5.24 cps | control response evoked

Reference: patent US20040072287A1 (priority 2003, published 2004)
